# Source: US5208326A, “8-hydroxy-2H-dibenz(b,f)azepin-2-one dyes” (Miles Inc., priority 1991, dated 1993)
# Legend:
# [1] = pKa of the acid/base indicator dye; assay type: physicochemical
# [2] = tested on: β-galactosidase; assay: Substrate evaluation: hydrolysis by β-galactosidase in solution; assay type: biochemical
# [3] = 50 mM phosphate buffer pH 7.4 (containing no magnesium)
pKa [1],SMILES,substrate for β-galactosidase (in words) [2],"Km [2, 3] [µM]","rate (Kcat) of hydrolysis to give 2 [2, 3]"
6.34,"O=c1ccc2nc3ccc(O)cc3ccc-2c1 [Compound 1, 8-Hydroxy-2H-dibenz[b,f]azepin-2-one]",–,–,–
6.95,"O=C1C=CC2=Nc3ccc(O)cc3CCC2=C1 [Compound 2, 8-Hydroxy-10,11-dihydro-2H-dibenz[b,f]azepin-2-one]",–,–,–
–,"O=c1ccc2nc3ccc(O[C@@H]4O[C@H](CO)[C@H](O)[C@H](O)[C@H]4O)cc3ccc-2c1 [Compound 3, 8-(β-D-galactopyranosyloxy)-2H-dibenz[b,f]azepin-2-one]",substrate for β-galactosidase,–,–
–,"O=C1C=CC2=Nc3ccc(O[C@@H]4O[C@H](CO)[C@H](O)[C@H](O)[C@H]4O)cc3CCC2=C1 [Compound 4, 8-(β-D-galactopyranosyloxy)-10,11-dihydro-2H-dibenz [b,f]azepin-2-one]",substrate for β-galactosidase,96,7.07×10^3 mol. min^-1 /mol. active site
